Assay results reported in BindingDB's records for patent US20250230171 (Moma Therapeutics, 2025).

What follows are compounds tested against T1, DNA polymerase theta (POLQ) (2-894) (assay: ATPase Assay).
T1 construct: 2-894
Procedure: POLθ-mediated ATP hydrolysis was measured using the ADP-Glo Kinase Assay (Promega Corporation, Madison, WI). Reactions were performed in white 384-well small-volume microplates (Greiner Bio-One, Frickenhausen, Germany) using a total volume of 15 μL. The ATPase reaction consisted of 1 nM biotinylated Avi-POLθ[2-894], 5 nM of a 50 nucleotide poly-thymine repeat single-stranded DNA (PolyT(50) ssDNA), and 100 μM ATP in 5 μL of assay buffer (50 mM Tris, pH 7.5, 80 mM KCl, 10 MgCl2, 1 mM DTT, 5% glycerol, 0.01% BSA, 0.01% Tween-20). Inhibition of POLΘATPase activity was determined by preparing 11-point serial dilutions of the test compounds in 100% DMSO, then transferring 30 nL of the compounds into the ATPase reaction using an Echo acoustic liquid handler (Beckman Coulter, Brea, CA). DMSO-treated wells containing either all of the reaction components (1 nM biotinylated Avi-POLθ[2-894], 5 nM PolyT(50) ssDNA, 100 μM ATP) or with assay buffer substituted for the biotinylated Avi-POLθ[2-894](0 nM biotinylated Avi-POLθ[2-894], 5 nM PolyT(50) ssDNA, 100 μM ATP) were used to define the maximum and minimum response in the assay. Following a one-hour incubation at ambient temperature, 5 μL of ADP-Glo Reagent was added to the ATPase reaction, and this mixture was allowed to incubate at ambient temperature for an additional hour. Lastly, 5 μL of Kinase Detection Reagent was added, followed by a third one-hour incubation at ambient temperature. The reagent concentrations listed represent the amounts only in the 5 μL ATPase reaction volume.

| IC50 [nM] | SMILES |
| --- | --- |
| 8 | COc1cnc(Cl)cc1-c1cc(C)ncc1C(=O)Nc1nc2c(s1)CN(C(=O)c1nccnc1C)C2 [US20250230171, Compound 520] |
| 8 | COc1cnc(Cl)cc1-c1cc(C)ncc1C(=O)Nc1nc2c(s1)CN(C(=O)c1cccnc1Cl)C2 [US20250230171, Compound 524] |
| 8 | COc1cnc(Cl)cc1-c1cc(C)ncc1C(=O)Nc1nc2c(s1)CN(C(=O)c1cncn1C1CC1)C2 [US20250230171, Compound 527] |
| 8 | COc1cnc(Cl)cc1-c1cc(C)ncc1C(=O)Nc1nc2c(s1)CN(C(=O)c1nc(C)c(C)o1)C2 [US20250230171, Compound 529] |
| 8 | COc1cnc(Cl)cc1-c1cc(C)ncc1C(=O)Nc1nc2c(s1)CN(C(=O)c1cc(C)nc(C(F)F)n1)C2 [US20250230171, Compound 530] |
| 8 | COc1cnc(Cl)cc1-c1cc(C)ncc1C(=O)Nc1nc2c(s1)CN(C(=O)c1cnc(OC)c(C(F)F)n1)C2 [US20250230171, Compound 531] |
| 8 | COc1cnc(Cl)cc1-c1cc(C)ncc1C(=O)Nc1nc2c(s1)CN(C(=O)C1CC3(CC(C#N)C3)C1)C2 (stereo unspecified) [US20250230171, Compound 532] |
| 8 | COc1cc2nn(C)cc2cc1-c1cc(C)ncc1C(=O)Nc1nc2c(s1)CN(C(=O)c1cccnc1OC)C2 [US20250230171, Compound 533] |
| 32.5 | COc1ccc(C#N)cc1-c1cc(C)ncc1C(=O)Nc1nc2c(s1)CN(C(=O)c1cccc(C(F)F)n1)C2 [US20250230171, Compound 538] |
| 32.5 | COc1ncc(Cl)cc1-c1cc(C)ncc1C(=O)Nc1nc2c(s1)CN(C(=O)c1cccc(C(F)F)n1)C2 [US20250230171, Compound 539] |
| 32.5 | COc1ncc(C#N)cc1-c1cc(C)ncc1C(=O)Nc1nc2c(s1)CN(C(=O)c1ccc(C(F)F)cn1)C2 [US20250230171, Compound 540] |
| 32.5 | COc1cnc(Cl)cc1-c1cc(C)ncc1C(=O)Nc1nc2c(s1)CN(C(=O)c1cncc(C(F)F)n1)C2 [US20250230171, Compound 541] |
| 32.5 | COc1cnc(Cl)cc1-c1cc(C)ncc1C(=O)Nc1nc2c(s1)CN(C(=O)c1nc(C)cn1C)C2 [US20250230171, Compound 543] |
| 32.5 | COc1ccc(C(=O)N2Cc3nc(NC(=O)c4cnc(C)cc4-c4cc(Cl)ncc4OC)sc3C2)nn1 [US20250230171, Compound 545] |
| 100 | COc1cnc(Cl)cc1-c1cc(C)ncc1C(=O)Nc1nc2c(s1)CN(C(=O)c1cnc(C)n1C)C2 [US20250230171, Compound 546] |
| 8 | COc1cnc(Cl)cc1-c1cc(C)ncc1C(=O)Nc1nc2c(s1)CN(C(=O)c1ncc(Cl)cc1C(C)(F)F)C2 [US20250230171, Compound 595] |
